Test results from BigSolDB 2.1.

Cc1ccc(S(N)(=O)=O)cc1
Details	solubility (mole fraction)
in acetone, 273.15 K	0.128
in acetone, 279.15 K	0.137
in acetone, 283.65 K	0.144
in acetone, 289.15 K	0.154
in acetone, 293.65 K	0.163
in acetone, 298.85 K	0.173
in acetone, 303.25 K	0.184
in acetone, 308.95 K	0.197
in acetone, 313.15 K	0.211
in acetone, 317.65 K	0.227
in acetone, 322.15 K	0.243
in acetonitrile, 273.15 K	0.0408
in acetonitrile, 279.15 K	0.047
in acetonitrile, 284.15 K	0.0538
in acetonitrile, 289.15 K	0.063
in acetonitrile, 294.15 K	0.0722
in acetonitrile, 299.15 K	0.0826
in acetonitrile, 303.65 K	0.093
in acetonitrile, 309.15 K	0.106
in acetonitrile, 313.15 K	0.121
in acetonitrile, 319.15 K	0.143
in acetonitrile, 324.75 K	0.164
in cyclohexanone, 273.15 K	0.122
in cyclohexanone, 279.15 K	0.131
in cyclohexanone, 284.15 K	0.139
in cyclohexanone, 289.15 K	0.147
in cyclohexanone, 294.15 K	0.157
in cyclohexanone, 299.15 K	0.169
in cyclohexanone, 303.65 K	0.18
in cyclohexanone, 309.15 K	0.192
in cyclohexanone, 313.15 K	0.206
in cyclohexanone, 319.15 K	0.226
in cyclohexanone, 324.75 K	0.244
in cyclopentanone, 273.15 K	0.149
in cyclopentanone, 279.15 K	0.158
in cyclopentanone, 284.15 K	0.166
in cyclopentanone, 289.15 K	0.175
in cyclopentanone, 294.15 K	0.185
in cyclopentanone, 299.15 K	0.196
in cyclopentanone, 303.65 K	0.206
in cyclopentanone, 309.15 K	0.218
in cyclopentanone, 313.15 K	0.231
in cyclopentanone, 319.15 K	0.249
in cyclopentanone, 324.75 K	0.266
in dichloromethane, 273.15 K	0.00336
in dichloromethane, 279.15 K	0.00392
in dichloromethane, 284.15 K	0.00458
in dichloromethane, 289.15 K	0.00587
in dichloromethane, 294.15 K	0.00705
in dichloromethane, 299.15 K	0.00877
in dichloromethane, 303.65 K	0.0103
in dichloromethane, 309.15 K	0.0128
in dichloromethane, 312.15 K	0.0143
in ethanol, 273.15 K	0.0174
in ethanol, 279.15 K	0.0203
in ethanol, 283.65 K	0.0233
in ethanol, 289.15 K	0.0268
in ethanol, 293.65 K	0.0312
in ethanol, 298.85 K	0.0361
in ethanol, 303.25 K	0.0425
in ethanol, 308.95 K	0.05
in ethanol, 313.15 K	0.0592
in ethanol, 317.65 K	0.0705
in ethanol, 322.15 K	0.0842
in ethyl acetate, 273.15 K	0.0364
in ethyl acetate, 279.15 K	0.0401
in ethyl acetate, 283.65 K	0.0442
in ethyl acetate, 289.15 K	0.0481
in ethyl acetate, 293.65 K	0.0541
in ethyl acetate, 298.85 K	0.059
in ethyl acetate, 303.25 K	0.0652
in ethyl acetate, 308.95 K	0.0718
in ethyl acetate, 313.15 K	0.0797
in ethyl acetate, 317.65 K	0.0897
in ethyl acetate, 322.15 K	0.1
in ethyl formate, 273.15 K	0.023
in ethyl formate, 279.15 K	0.0268
in ethyl formate, 284.15 K	0.0308
in ethyl formate, 289.15 K	0.0342
in ethyl formate, 294.15 K	0.0391
in ethyl formate, 299.15 K	0.0447
in ethyl formate, 303.65 K	0.0507
in ethyl formate, 309.15 K	0.0582
in ethyl formate, 313.15 K	0.0655
in ethyl formate, 319.15 K	0.0784
in ethyl formate, 324.75 K	0.0914
in isobutanol, 273.15 K	0.00456
in isobutanol, 279.15 K	0.00562
in isobutanol, 283.65 K	0.0069
in isobutanol, 289.15 K	0.00846
in isobutanol, 293.65 K	0.0103
in isobutanol, 298.85 K	0.0124
in isobutanol, 303.25 K	0.016
in isobutanol, 308.95 K	0.0193
in isobutanol, 313.15 K	0.0236
in isobutanol, 317.65 K	0.0288
in isobutanol, 322.15 K	0.0357
in isopentanol, 273.15 K	0.00515
in isopentanol, 279.15 K	0.00618
in isopentanol, 284.15 K	0.00814
in isopentanol, 289.15 K	0.00944
in isopentanol, 294.15 K	0.0114
in isopentanol, 299.15 K	0.0139
in isopentanol, 303.65 K	0.0168
in isopentanol, 309.15 K	0.0204
in isopentanol, 313.15 K	0.0251
in isopentanol, 319.15 K	0.0319
in isopentanol, 324.75 K	0.039
in isopropanol, 273.15 K	0.0077
in isopropanol, 279.15 K	0.00943
in isopropanol, 283.65 K	0.0114
in isopropanol, 289.15 K	0.0137
in isopropanol, 293.65 K	0.0167
in isopropanol, 298.85 K	0.0201
in isopropanol, 303.25 K	0.0246
in isopropanol, 308.95 K	0.0301
in isopropanol, 313.15 K	0.0365
in isopropanol, 317.65 K	0.0447
in isopropanol, 322.15 K	0.0552
in methanol, 273.15 K	0.0316
in methanol, 279.15 K	0.0362
in methanol, 283.65 K	0.0415
in methanol, 289.15 K	0.0473
in methanol, 293.65 K	0.0544
in methanol, 298.85 K	0.0626
in methanol, 303.25 K	0.0724
in methanol, 308.95 K	0.0836
in methanol, 313.15 K	0.0971
in methanol, 317.65 K	0.112
in methanol, 322.15 K	0.131
in methyl acetate, 273.15 K	0.0494
in methyl acetate, 279.15 K	0.0558
in methyl acetate, 284.15 K	0.062
in methyl acetate, 289.15 K	0.0676
in methyl acetate, 294.15 K	0.075
in methyl acetate, 299.15 K	0.0833
in methyl acetate, 303.65 K	0.0925
in methyl acetate, 309.15 K	0.103
in methyl acetate, 313.15 K	0.115
in methyl acetate, 319.15 K	0.132
in methyl acetate, 324.75 K	0.148
in n-butanol, 273.15 K	0.00725
in n-butanol, 279.15 K	0.00871
in n-butanol, 283.65 K	0.0104
in n-butanol, 289.15 K	0.0124
in n-butanol, 293.65 K	0.0148
in n-butanol, 298.85 K	0.0172
in n-butanol, 303.25 K	0.0209
in n-butanol, 308.95 K	0.0253
in n-butanol, 313.15 K	0.0303
in n-butanol, 317.65 K	0.0363
in n-butanol, 322.15 K	0.044
in n-pentanol, 273.15 K	0.00607
in n-pentanol, 279.15 K	0.00712
in n-pentanol, 284.15 K	0.00906
in n-pentanol, 289.15 K	0.0107
in n-pentanol, 294.15 K	0.0128
in n-pentanol, 299.15 K	0.0153
in n-pentanol, 303.65 K	0.0182
in n-pentanol, 309.15 K	0.022
in n-pentanol, 313.15 K	0.0271
in n-pentanol, 319.15 K	0.0343
in n-pentanol, 324.75 K	0.0416
in n-propanol, 273.15 K	0.00916
in n-propanol, 279.15 K	0.0111
in n-propanol, 283.65 K	0.013
in n-propanol, 289.15 K	0.0154
in n-propanol, 293.65 K	0.0183
in n-propanol, 298.85 K	0.0215
in n-propanol, 303.25 K	0.0259
in n-propanol, 308.95 K	0.0312
in n-propanol, 313.15 K	0.0376
in n-propanol, 317.65 K	0.0455
in n-propanol, 322.15 K	0.0554
